Laboratory results taken from ChEMBL document CHEMBL1201862, “PubChem BioAssay data set” (2004).
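Results reflect a 48-hour exposure of cells in 96-well plates to compound at five concentrations. GI50: concentration for 50% inhibition of growth.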 Calls of active or inactive are those of the source. No stated cut-off is given here; in the data, active = GI50 up to about 1.1 µM and inactive = higher.

Columns and labels:
Test in all cases: NCI tumour cell line growth inhibition, 48 h
SF-268 = system: SF-268
HL-60 = system: HL-60
UACC-62 = system: UACC-62
K562 = system: K562
A549 = system: A549
NCI-H23 = system: NCI-H23
SF-539 = system: SF-539
SK-MEL-2 = system: SK-MEL-2
786-0 = system: 786-0
SNB-75 = system: SNB-75
IGROV-1 = system: IGROV-1
HOP-62 = system: HOP-62
NCI-H226 = system: NCI-H226
U-251 = system: U-251
SN12C = system: SN12C
OVCAR-8 = system: OVCAR-8
SK-OV-3 = system: SK-OV-3
COLO 205 = system: COLO 205
HOP-92 = system: HOP-92
Malme-3M = system: Malme-3M

SMILES | GI50 (SF-268) | GI50 (HL-60) | GI50 (UACC-62) | GI50 (K562) | GI50 (A549) | GI50 (NCI-H23) | GI50 (SF-539) | GI50 (SK-MEL-2) | GI50 (786-0) | GI50 (SNB-75) | GI50 (IGROV-1) | GI50 (HOP-62) | GI50 (NCI-H226) | GI50 (U-251) | GI50 (SN12C) | GI50 (OVCAR-8) | GI50 (SK-OV-3) | GI50 (COLO 205) | GI50 (HOP-92) | GI50 (Malme-3M)
CC1C(NNc2ccccc2)Oc2cc3c(cc2C1c1ccccc1O)OCO3 (stereo unspecified) | 12.2 µM (inactive) | 4.01 µM (inactive) | 1.44 µM (inactive) | 0.444 µM (active) | 2.93 µM (inactive) | 12.8 µM (inactive) | 2.01 µM (inactive) | 10.9 µM (inactive) | 5.53 µM (inactive) | 10.1 µM (inactive) | 1.7 µM (inactive) | 3.1 µM (inactive) | 12.8 µM (inactive) | 10.1 µM (inactive) | 5.79 µM (inactive) | 10 µM (inactive) | 10.5 µM (inactive) | 11.3 µM (inactive) | 13.5 µM (inactive) | 3.47 µM (inactive)
CC(C)C1CC(CO)(CNc2nc(N)nc(Cl)c2/C=N\O)C1 (stereo unspecified) | 22.4 µM (inactive) | 4.6 µM (inactive) | 11.6 µM (inactive) | 0.0843 µM (active) | 1.76 µM (inactive) | 0.519 µM (active) | 16.8 µM (inactive) | 12 µM (inactive) | 18.2 µM (inactive) | 12.5 µM (inactive) | 15.7 µM (inactive) | 21.9 µM (inactive) | 14.8 µM (inactive) | 14.5 µM (inactive) | 23.2 µM (inactive) | 15.5 µM (inactive) | 10.3 µM (inactive) | 2.37 µM (inactive) | 12.5 µM (inactive) | 3.22 µM (inactive)
O=[As]O | > 47.1 µM (inactive) | 9.82 µM (inactive) | > 39.1 µM (inactive) | 37.7 µM (inactive) | > 100 µM (inactive) | > 48.3 µM (inactive) | 22.8 µM (inactive) | > 59.6 µM (inactive) | > 57.3 µM (inactive) | > 51.1 µM (inactive) | 28 µM (inactive) | > 100 µM (inactive) | > 48.3 µM (inactive) | 23.2 µM (inactive) | > 48.4 µM (inactive) | > 43.8 µM (inactive) | > 100 µM (inactive) | > 90.6 µM (inactive) | > 41.6 µM (inactive) | 25.3 µM (inactive)
COC(=O)C(Cc1ccccc1)NP(=O)(O)OCC1OC(n2cc(Br)c(=O)[nH]c2=O)CC1O (stereo unspecified) | > 100 µM (inactive) | > 100 µM (inactive) | > 100 µM (inactive) | > 100 µM (inactive) | > 100 µM (inactive) | > 100 µM (inactive) | > 100 µM (inactive) | > 100 µM (inactive) | > 100 µM (inactive) | > 100 µM (inactive) | > 100 µM (inactive) | > 100 µM (inactive) | > 100 µM (inactive) | > 100 µM (inactive) | > 100 µM (inactive) | > 100 µM (inactive) | > 100 µM (inactive) | > 100 µM (inactive) | > 100 µM (inactive) | > 100 µM (inactive)
O=c1[nH]c(Nc2cccc(C(F)(F)F)c2)nc2[nH]cnc12 | > 100 µM (inactive) | > 100 µM (inactive) | – | > 100 µM (inactive) | > 100 µM (inactive) | – | > 100 µM (inactive) | 88.3 µM (inactive) | > 100 µM (inactive) | 71.1 µM (inactive) | > 100 µM (inactive) | > 100 µM (inactive) | > 100 µM (inactive) | > 100 µM (inactive) | > 100 µM (inactive) | > 100 µM (inactive) | > 100 µM (inactive) | 73.3 µM (inactive) | > 100 µM (inactive) | > 100 µM (inactive)
CCc1ccc(/C=C\c2cc(OC)c(OC)c(OC)c2)cc1 | 0.149 µM (active) | 0.0053 µM (active) | 0.0132 µM (active) | 0.00845 µM (active) | 0.0223 µM (active) | 0.0461 µM (active) | 0.0101 µM (active) | 0.112 µM (active) | < 0.0196 µM (active) | 0.0234 µM (active) | 0.0493 µM (active) | 0.0531 µM (active) | 0.024 µM (active) | 0.0102 µM (active) | 0.0159 µM (active) | 0.0456 µM (active) | 0.013 µM (active) | 0.0122 µM (active) | 0.00813 µM (active) | 0.124 µM (active)
COC1C=COC2(C)Oc3c(C)c(O)c4c(c3C2=O)/C(=N/C2CCC(O)OC2C)C=C(NC(=O)/C(C)=C\C(=O)C2CC2C(O)C(C)C(O)C(C)C(OC(C)=O)C1C)C4=O (stereo unspecified) | 2.97 µM (inactive) | 2.14 µM (inactive) | 2.01 µM (inactive) | 2.22 µM (inactive) | 3.48 µM (inactive) | 1.79 µM (inactive) | 2.33 µM (inactive) | 3.48 µM (inactive) | 1.66 µM (inactive) | 3.09 µM (inactive) | 2.4 µM (inactive) | 3.04 µM (inactive) | 2.65 µM (inactive) | 2.77 µM (inactive) | 1.61 µM (inactive) | 1.69 µM (inactive) | 7.96 µM (inactive) | 1.33 µM (inactive) | 2.07 µM (inactive) | 1.69 µM (inactive)
Nc1cc2c(C3OC(CO)C(O)C3O)n[nH]c2c(=S)[nH]1 (stereo unspecified) | > 100 µM (inactive) | 41.2 µM (inactive) | > 100 µM (inactive) | > 100 µM (inactive) | > 100 µM (inactive) | > 100 µM (inactive) | > 100 µM (inactive) | 98.2 µM (inactive) | > 100 µM (inactive) | > 100 µM (inactive) | > 100 µM (inactive) | > 100 µM (inactive) | > 100 µM (inactive) | > 100 µM (inactive) | > 100 µM (inactive) | > 100 µM (inactive) | > 100 µM (inactive) | > 100 µM (inactive) | > 100 µM (inactive) | > 100 µM (inactive)
O=C(O)c1ccccc1CC1Cc2ccccc2C1=O (stereo unspecified) | > 100 µM (inactive) | > 100 µM (inactive) | > 100 µM (inactive) | > 100 µM (inactive) | > 100 µM (inactive) | > 100 µM (inactive) | > 100 µM (inactive) | > 100 µM (inactive) | > 100 µM (inactive) | 64.7 µM (inactive) | > 100 µM (inactive) | > 100 µM (inactive) | > 100 µM (inactive) | > 100 µM (inactive) | > 100 µM (inactive) | > 100 µM (inactive) | > 100 µM (inactive) | > 100 µM (inactive) | > 100 µM (inactive) | > 100 µM (inactive)
Cc1ccc(N(C=O)c2c([N+](=O)[O-])cc([N+](=O)[O-])c3c2=[N+]([O-])CN=3)cc1 | 36 µM (inactive) | 23 µM (inactive) | 11.9 µM (inactive) | 27.3 µM (inactive) | > 100 µM (inactive) | 23.5 µM (inactive) | 32 µM (inactive) | 17.7 µM (inactive) | 27 µM (inactive) | 33.7 µM (inactive) | 38.8 µM (inactive) | 60 µM (inactive) | > 100 µM (inactive) | 28.4 µM (inactive) | 31.6 µM (inactive) | 28.5 µM (inactive) | > 100 µM (inactive) | 28.5 µM (inactive) | 16.2 µM (inactive) | 20.3 µM (inactive)
Cc1cccc2c(N)c3cccc(C(=O)NCC[N+]4(Cc5ccc([N+](=O)[O-])cc5)CCOCC4)c3nc12 | 15.6 µM (inactive) | 18.2 µM (inactive) | > 51.4 µM (inactive) | 16 µM (inactive) | 31.5 µM (inactive) | 35.9 µM (inactive) | 24.8 µM (inactive) | > 79.1 µM (inactive) | 12.8 µM (inactive) | 16 µM (inactive) | 20.6 µM (inactive) | 25.7 µM (inactive) | 41 µM (inactive) | 38.8 µM (inactive) | 3.99 µM (inactive) | 30.4 µM (inactive) | > 100 µM (inactive) | 45.9 µM (inactive) | 22.4 µM (inactive) | 29.4 µM (inactive)
CC(C)=CCC[C@H](C)[C@H]1CC[C@@H](C)c2cc(O)c(C)cc21 | 16.8 µM (inactive) | 21.1 µM (inactive) | 14.5 µM (inactive) | 20.1 µM (inactive) | 17.1 µM (inactive) | 18.1 µM (inactive) | 17.8 µM (inactive) | 17 µM (inactive) | 18.6 µM (inactive) | 19.1 µM (inactive) | 17.1 µM (inactive) | 19.1 µM (inactive) | 18 µM (inactive) | 17.1 µM (inactive) | 15.9 µM (inactive) | 18.5 µM (inactive) | 19.1 µM (inactive) | 18.3 µM (inactive) | 16.7 µM (inactive) | 18.6 µM (inactive)
Cc1ccc(C)c(N2C(=O)C(=O)C(c3nc4ccccc4s3)/C(=N/NC(=O)NN)C2=O)c1 (stereo unspecified) | > 100 µM (inactive) | > 100 µM (inactive) | > 100 µM (inactive) | – | > 100 µM (inactive) | > 100 µM (inactive) | > 100 µM (inactive) | > 100 µM (inactive) | > 100 µM (inactive) | > 100 µM (inactive) | > 100 µM (inactive) | > 100 µM (inactive) | > 100 µM (inactive) | > 100 µM (inactive) | > 100 µM (inactive) | > 100 µM (inactive) | > 100 µM (inactive) | > 100 µM (inactive) | > 100 µM (inactive) | > 100 µM (inactive)
CCOc1ccc2c(c1)C(/C(C(Cl)=C(Cl)Cl)=[N+](/[O-])OC(=O)c1ccccc1)=N2 | 44.5 µM (inactive) | 33.7 µM (inactive) | 77.6 µM (inactive) | 38.7 µM (inactive) | 47 µM (inactive) | 48.6 µM (inactive) | 79.3 µM (inactive) | 85.9 µM (inactive) | 72.4 µM (inactive) | 56.8 µM (inactive) | – | 65.8 µM (inactive) | 37.3 µM (inactive) | 46.7 µM (inactive) | 78.9 µM (inactive) | 72.8 µM (inactive) | > 100 µM (inactive) | 40.1 µM (inactive) | 38.1 µM (inactive) | > 100 µM (inactive)
